From article PMC8329730 (Journal of medicinal chemistry, 2019)
Structures can show the parent of a compound that is named as a salt. Each block holds one molecule with its values, some of them ahead of it.

Legend:
[1] = human liver microsome intrinsic clearance; settings: human liver microsomes
[2] = LogD; format: physicochemical; settings: pH 7.4
[3] = mouse PK, blood and brain, 10 mg/kg IP; format: in vivo; settings: female, NMRI, whole blood
[4] = toxicity observed on dosing mice; format: in vivo, mouse; settings: 50 mg/kg QD

HLM Clint [1]: highly cleared
Molecule: 1-((6aR,9aR)-4-(2-Aminopyrimidin-4-yl)-6a,7,8,9,9a,10-hexahydro-2H-cyclopenta[2,3][1,4]oxazepino[5,6,7-cd]indazol-2-yl)ethan-1-one [compound 49]

logD [2]: 4.1
Molecule: c1ccc2c(c1)Nc1n[nH]c3cccc(c13)O2 [9a]

Molecule: CCOc1cc(-c2ccnc(N)n2)cc2[nH]nc(N)c12 [57a, 6-(2-Aminopyrimidin-4-yl)-4-ethoxy-1H-indazol-3-amine formate]
Tmax [3]: 15 to 30 min

Molecule: Cn1nc2c3c(cc(-c4ccnc(N)n4)cc31)Oc1ccccc1N2 [compound 18, 4-(2-Methyl-2,11-dihydrobenzo[2,3][1,4]oxazepino[5,6,7-cd]indazol-4-yl)pyrimidin-2-amine]
Tmax [3]: 15 to 30 min | animals dying within 30 minutes of treatment [4]: 50% | animals experiencing inflammation after dosing ([4]; resolved with time): 50%
